One assay has as its system LL/2. The experiment in a line: Tumor growth inhibition, animal model for lung cancer II (LL/2). Particulars: Experimental Example 31; LL/2 lung cancer II; dunnione 40 mg/kg oral daily from 6th day; anti-PD-1 antibody 100 μg/head, carboplatin 25 mg/kg + pemetrexed 100 mg/kg intraperitoneal 2 times a week, 3 times in total. The assay is classed as in vivo, C57BL/6 mice. As for the experimental part:
(§1) All mice used in the experiments were raised in a sterile animal room with constant temperature (22° C. to 26° C.) and constant humidity (55% to 60%), acclimatized for 1 week while sufficiently supplying typical solid feed (Samtako Inc., Korea) and water, and then used. All experiments were conducted after obtaining approval from the Institutional Animal Care and Use Committee in accordance with the laboratory animal care and ethics regulations of the Institutional Animal Care and Use Committee of Wonkwang University.
(§2) 7-week-old BALB/c or C57BL/6 mice were used, and subcutaneously inoculated using a 1-mL insulin syringe within 30 minutes after mixing the mouse cancer cells with 0.2 mL of PBS.
(§3) After the cancer cell line was subcutaneously implanted, the administration of drugs was started when the size of the cancer reached 50 to 100 mm^3. The volumes (mm^3) of the tumors, which were generated after the inoculation, were measured at intervals of 3 days using a caliper, calculation was performed using the formula of […], and then the results thereof were compared. […]

In assay [1] the test system is spontaneous non-small cell lung cancer (Kras^LSL-G12D/+; Trp53^flox/flox mice). The assay can be described thus: Tumor proliferation in genetically engineered mouse models for spontaneous non-small cell lung cancer (Micro-CT). The assay is classed as in vivo. Particulars: compared to before the drug administration, Micro-CT imaging; dunnione 40 mg/kg, carboplatin 25 mg/kg, paclitaxel 10 mg/kg, anti-PD-1 antibody 200 μg/head. From the text: Models for spontaneous non-small cell lung cancer were induced by constructing conditional mutant mice (Kras^LSL-G12D/+; Trp53^flox/flox mice) having Ras activation and p53 variation through crossbreeding of conditional K-Ras activation variation-genetically engineered mice and conditional p53 variation-genetically engineered mice, and then performing intratracheal instillation of adenoviruses (Ad5-CMV-Cre; 2.5×10^7 PFU/infectious units), into which Cre genes were introduced, into the lung. […]
After sole administration or co-administration of respective drugs was performed according to the administration schedule listed in Table 38 below and FIG. 35, the tumor growth rate for each group compared to before the drug administration was measured at the 6th week through Micro-CT imaging, and the results thereof were summarized in Table 39.

A further assay concerns KLN205. The experiment in a line: Tumor growth inhibition, animal model for lung cancer I (KLN205). The assay is classed as in vivo, DBA/2 mice. Particulars: Experimental Example 30, dunnione 40 mg/kg oral daily from 5th day, anti-PD-1 antibody 100 μg/head, carboplatin 25 mg/kg + paclitaxel 10 mg/kg intraperitoneal 2 times a week, 4 times in total. As to the method:
as §1, §2, §3

A further assay deals with 4T1-Luc. The experiment in a line: Tumor metastasis analysis, photon emission amount after tumor resection (4T1-Luc). The assay is classed as in vivo, BALB/c mice. Particulars: Experimental Example 32; 17th day after primary tumor removal; dunnione 40 mg/kg oral daily; anti-CTLA4 antibody 200 μg/head intraperitoneal at intervals of 3 days; mitoxantrone 6 mg/kg intraperitoneal once on 1st day. As to the method: 4T1-Luc (2.5×10^6 cells) as a mouse breast cancer cell line overexpressing a luciferase was implanted into mammary fat pads of BALB/c mice, and the tumor was removed through surgical resection when the size of the cancer reached 150 to 200 mm^3. The administration of drugs was started from the day after the tumor removal procedure, and the degree of cancer metastasis was measured by measuring the photon emission amount at intervals of 1 week from the 3rd day after the tumor removal procedure.
After sole administration or co-administration of respective drugs was performed according to the administration schedule listed in Table 35 below, the photon emission amount (fold) was measured on the 17th day according to the tumor metastasis assessment method described in Example 2.1, and the results thereof are shown in Table 35 and FIG. 32.

The next assay deals with MC38. The assay can be described thus: Tumor growth inhibition, animal model for colorectal cancer I (MC38). The assay is classed as in vivo, C57BL/6 mice. As to the method: as §1, §2
(§4) After the cancer cell line was subcutaneously implanted, the administration of drugs was started when the size of the cancer reached 50 to 100 mm^3. The volumes (mm^3) of the tumors, which were generated after the inoculation, were measured at intervals of 3 days using a caliper, calculation was performed using the formula of […], and then the results thereof were compared.
(§5) In addition, sole administration or co-administration of respective drugs was performed according to the administration schedules listed in Tables 4 to 34 below, the tumor volumes were then measured according to the tumor proliferation assessment method described in Example 1.1, the tumor growth inhibition rates (TGI (O)=(Vc−Vt)/Vc×100(%); Vc: tumor volume of control, Vt tumor volume of experimental group) were calculated based the tumor volumes, and the results thereof are shown in the respective tables and FIGS. 1 to 31.

Another assay has as its system RENCA. The experiment in a line: Tumor growth inhibition, animal model for renal cancer (RENCA). The assay is classed as in vivo, BALB/c mice. As to the method:
as §1, §2, §4, §5

A further assay has as its system 4T1. The experiment in a line: Tumor growth inhibition, animal model for breast cancer I (4T1). Type of assay: in vivo, BALB/c mice. As to the method: as §1, §2, §4, §5
The subject of the next assay is EMT6. The experiment in a line: Tumor growth inhibition, animal model for breast cancer II (EMT6). The assay is classed as in vivo, BALB/c mice. Particulars: Experimental Example 14, Dunnione 40 mg/kg oral every day from 11th day, Anti-CTLA4 antibody 200 μg/head i.p. 2 times a week from 11th day, Lapatinib 100 mg/kg oral every day from 11th day. As to the method:
as §1, §2, §3

On to `CC1OC2=C(C(=O)C(=O)c3ccccc32)C1(C)C` (stereo not drawn) [Dunnione, 2,3,3-trimethyl-2H-benzo[g][1]benzofuran-4,5-dione], for which the “TGI (%)” value in the assay on LL/2 came to 23.5%; in the assay on KLN205 it was 10.2%; in the assay on MC38 (Experimental Example 1, Dunnione 40 mg/kg oral every day from 5th day, Anti-PD-1 antibody 200 μg/head i.p. at intervals of 3 days from 5th day, 4 times, Oxaliplatin 6 mg/kg + 5-Fluorouracil 50 mg/kg i.p. once on 5th day), 8.1%; in the assay with MC38 (Experimental Example 2, Dunnione 40 mg/kg oral every day from 5th day, Anti-CTLA4 antibody 200 μg/head i.p. at intervals of 3 days from 5th day, 4 times, Oxaliplatin 6 mg/kg + 5-Fluorouracil 50 mg/kg i.p. once on 5th day), 7.6%; in the assay on MC38 (Experimental Example 3, Dunnione 40 mg/kg oral every day from 4th day, Anti-PD-1 antibody 100 ug/head + Anti-CTLA4 antibody 100 μg/head i.p. at intervals of 3 days from 4th day, 4 times, Oxaliplatin 6 mg/kg + 5-Fluorouracil 50 mg/kg i.p. once on 4th day), 5.3%; with MC38 (Experimental Example 4, Dunnione 40 mg/kg oral every day from 7th day, Anti-LAG3 antibody 200 μg/head i.p. on 7th, 10th, 14th, 17th days, Oxaliplatin 6 mg/kg i.p. on 7th and 14th days), 13.1%. Besides, the “TGI (%)” value in the assay on MC38 (Experimental Example 5, Dunnione 40 mg/kg oral every day from day of cancer cell implantation, Anti-PD-1 antibody 200 μg/head i.p. at intervals of 3 days from 7th day, 4 times) stood at 28.5%; in the assay on MC38 (Experimental Example 6, Dunnione 40 mg/kg oral every day from 7th day, Anti-PD-1 antibody 100 μg/head i.p. 2 times a week from 7th day, 4 times, Regorafenib 10 mg/kg oral every day from 7th day), 36.8%; in the assay on MC38 (Experimental Example 7, Dunnione 40 mg/kg oral every day from 6th day, Anti-PD-1 antibody 100 μg/head i.p. 2 times a week from 6th day, 2 times, Abemaciclib 75 mg/kg oral every day from 6th day) it was 9.9%; in the assay with RENCA (Experimental Example 15, Dunnione 40 mg/kg oral every day from 7th day, Anti-CTLA4 antibody 200 μg/head i.p. at intervals of 3 days from 7th day, 7 times, Everolimus 250 μg/kg oral every day from 7th day), 7.8%; in the assay on RENCA (Experimental Example 16, Dunnione 40 mg/kg oral every day from 7th day, Sorafenib 10 mg/kg oral every day from 7th day), 14.5%; in the assay with RENCA (Experimental Example 17, Dunnione 40 mg/kg oral every day from 7th day, Anti-CTLA4 antibody 200 μg/head i.p. at intervals of 3 days from 7th day, 3 times, Sorafenib 10 mg/kg oral every day from 7th day), 14.5%. For the same molecule, the “TGI (%)” value with RENCA (Experimental Example 18, Dunnione 40 mg/kg oral every day from 7th day, Anti-PD-1 antibody 100 μg/head i.p. 2 times a week from 7th day, 5 times, Everolimus 0.1 mg/kg oral every day from 7th day) is on record as 5.2%; in the assay on RENCA (Experimental Example 19, Dunnione 40 mg/kg oral every day from 7th day, Anti-CTLA4 antibody 200 μg/head i.p. 2 times a week from 7th day, 5 times, Sorafenib 10 mg/kg oral every day from 7th day), 44.6%; with RENCA (Experimental Example 20, Dunnione 40 mg/kg oral every day from 10th day, Anti-CTLA4 antibody 200 μg/head i.p. 2 times a week from 10th day, 5 times, Vistusertib 10 mg/kg oral every day from 10th day), 33.2%; with 4T1 (Experimental Example 10, Dunnione 40 mg/kg oral every day from 5th day, Anti-CTLA4 antibody 200 μg/head i.p. at intervals of 3 days from 5th day, 4 times, Mitoxantrone 6 mg/kg i.p. once on 5th day) it was 8.9%; with 4T1 (Experimental Example 12, Dunnione 40 mg/kg oral every day from 7th day, Adriamycin 3.08 mg/kg + Cyclophosphamide 30.8 mg/kg + Paclitaxel 4.12 mg/kg i.p. at intervals of 1 week from 7th day, 3 times), 23.6%; in the assay with 4T1 (Experimental Example 13, Dunnione 40 mg/kg oral every day from 7th day, Docetaxel 4.06 mg/kg + Adriamycin 2.7 mg/kg + Cyclophosphamide 27 mg/kg i.p. at intervals of 1 week from 7th day, 4 times) it was 16.1%. The “TGI (%)” value in the assay with EMT6 stood at 9.7%. For the same molecule, the “Tumor growth rate (fold) at 6th week” value in assay [1] turned out to be 34.6 ± 54 fold. Further, the Photon emission amount with 4T1-Luc is given as 2805.3 ± 2352.3 fold.

These data come from patent US20230255904A1, “PHARMACEUTICAL COMPOSITION FOR PREVENTING OR TREATING CANCER COMPRISING NAPHTHOQUINONE-BASED COMPOUND AND IMMUNE CHECKPOINT INHIBITOR AS ACTIVE INGREDIENTS” (NADIANBIO LTD., priority 2020, published 2023).
